The values that follow come from the NIST ThermoML archive (doi:10.1021/acs.jced.5b00200).

Where “and” joins values, the source holds several entries; their conditions need not be identical. Equal entries are not always repeated. ± gives the expanded uncertainty stated by the source.

The nature of the series: wn = mass fraction of the nth substance listed. To be noted: 297.15 K, 100 kPa, Liquid, Alternating current cell with electrodes.

For `CC(C)O` [propan-2-ol] + O, the electrical conductivity (w1 = 0.097) is 0.0001 S/m.

On to `CCC(C)O` (stereo not given) [butan-2-ol] + O, for which the electrical conductivity (w1 = 0.097) was found to be 0.0001 S/m.

Consider `CC(=O)[O-].[NH4+]` [ammonium acetate] + O, for which, under “w1 = 0.047”, the electrical conductivity is 0.0479 ± 0.004 S/m.

In the case of `CC(=O)[O-].[Na+]` [sodium ethanoate] + O, where the note is “w1 = 0.047”, the electrical conductivity was 0.0438 S/m and 0.0441 S/m.

Consider `CC(=O)[O-].[K+]` [potassium ethanoate] + O, for which, under “w1 = 0.047”, the electrical conductivity was 0.0484 S/m and 0.0479 S/m.
